The subject of one assay is blood-fed mosquitoes. Description: Evaluation of follicle size after microinjection into blood-fed mosquitos. To be noted: 200 nl of 0.7 mM compound microinjected one hour after blood feeding; ovaries dissected 48 h post blood meal; DMSO control 452.8±6.4 μm. In kind it is in vivo, Aedes aegypti. How it is done: The mosquitos were reared in environmental chambers. Larvae were then fed with a mixture of tropical flakes, rat chow, liver powder, or cat food pellets. Adult pests were maintained on 10% sucrose. Four-day old mosquitos were allowed to feed on human blood supplemented with fresh ATP. One hour after blood feeding, the mosquitos were briefly chilled at 4° C. to immobilize. 200 nl of the compound, 4-isopropyl-8-phenyl-1,3,4,6,6a,9b-hexahydrothiopyrano [3,4-e]isoindole-7,9(8H,9aH)-dione, was diluted in water to a final concentration of 0.7 mM before use. Then the compound was microinjected with a microinjector into fully fed mosquitos. For each experiment, the mosquitos were also microinjected with 2% DMSO (control). Mosquitos were allowed to feed 10% sucrose, and 48 h post blood meal, ovaries were dissected from the injected mosquitos in 1×PBS under a microscope. Ovaries were teased to separate follicles, and the images were digitally captured for follicle length measurement.

The test system of assay [1] is mosquito larvae (second instar). Kind of assay: Evaluation of mosquito larval mortality. The assay is classed as in vivo, Aedes aegypti. The note with it: 0.2 mM in larval growth media, 24 hours of exposure. The procedure: Two-day-old second instar larvae were transferred to wells in a plate containing 1 ml of larval growth media. The 4-isopropyl-8-phenyl-1,3,4,6,6a,9b-hexahydrothiopyrano [3,4-e]isoindole-7,9(8H,9aH)-dione and DMSO (control) were added directly to the media and swirled. The final concentration of the 4-isopropyl-8-phenyl-1,3,4,6,6a,9b-hexahydrothiopyrano [3,4-e]isoindole-7,9(8H,9aH)-dione in each well was 0.2 mM, the DMSO concentration was 0.2%. The plates were kept in the environmental chamber. Mosquito larvae were examined under a microscope for any sign of mortality 24 hours after exposure. Data obtained from at least three biological replicates were statistically analyzed with the Bonferroni post tests.

Assay [2] relates to Aedes aegypti (Rockefeller strain) mosquitoes. Kind of assay: Microinjection into female mosquitoes before blood feeding; observation for defective phenotypes (midgut, blood meal storage). In kind it is in vivo. To be noted: 200 nL of 5.0 mM compound in 5% DMSO microinjected into four day old females; fed human blood one day later. How it is done: Aedes aegypti (Rockefeller strain) mosquitoes were reared in standard conditions. Four day old female mosquitoes were microinjected with 200 nL of 5% DMSO (control) or the compound described in Example 1, i.e. 4-isopropyl-8-phenyl-1,3,4,6,6a,9b-hexahydrothiopyrano [3,4-e]isoindole-7,9(8H,9aH)-dione (5.0 mM in 5% DMSO), using Nanoject II (Drummond). The injected mosquitoes were recovered for one day in the environmental chamber and fed on warmed human blood through a membrane feeder. Twenty fully fed mosquitoes from each group were observed under a dissecting microscope for defective phenotypes, including midgut and primary follicle development in the ovaries during the first gonotrophic cycle.

With `CC(C)[C@@H]1CSC[C@@H]2C1=CC[C@@H]1C(=O)N(c3ccccc3)C(=O)[C@@H]12` [4-isopropyl-8-phenyl-1,3,4,6,6a,9b-hexahydrothiopyrano [3,4-e]isoindole-7,9(8H,9aH)-dione], in the assay on blood-fed mosquitoes, the follicle size is reported as 145.6±11.0 μm. Moreover, the “number of mosquito larvae died” value in assay [1] is reported as 18 out of 45 mosquito larvae. The same compound gave a mosquito larvae died in assay [1] (all control larvae survived) of 40%. In addition, the “blood-fed mosquitoes exhibiting the defect in the alimentary canal (blood meal misdirected into the ventral diverticulum)” value in assay [2] amounted to 40%.

Source of the values: patent US10370385B2, “Tricyclic mosquitocides and methods of making and using thereof” (The Arizona Board of Regents on Behalf of the University of …, priority 2014, dated 2019).
